Data from US12679822B2, “Alkenyl pyrimidine compound, preparation method therefor, and application thereof” (Hongyun Biotech Co., Ltd., priority 2020, dated 2026).

Assays:
Assay type in all cases: cell-based
[1] = molecular target: BaF3 cell lines stably transfected with kinase EGFR L858R/T790M (Homo sapiens, UniProt P00533, T790M/L858R, cells depend on it); assay: Growth inhibition of BaF3 cell line stably transfected with kinase EGFR L858R/T790M (MTS); conditions: 48 h, read-out: growth inhibitory activity IC50, L858R/T790M
Experimental: (§1) Biological Activity Assay: Growth Inhibitory Activity of Compounds on Cell Lines Stably Transfected with Kinase
(§2) The activity of compounds against various mutants of kinase EGFR was evaluated by their effect of inhibiting growth of BaF3 cell lines stably transfected with kinase. The specific test method was given as follows:
(§3) 1) Culture medium: DMEM (Dulbecco's modified eagle medium) or RPMI 1640 (containing 10% fetal bovine serum, 100 μg/mL ampicillin, 100 μg/mL streptomycin).
(§4) 2) Reagent: MTS reaction solution (containing 2 mg/mL of MTS [3-(4,5-di methylthiazol-2-yl)-5-(3-carboxymethoxyphenyl)-2-(4-sulfophenyl)-2H-tetrazolium, inner Salt]; 100 μg/mL of PES (phenazine […])).
(§5) 3) Compound test: cells were incubated into a 96-well culture plate, the volume of cytosol was 90 μL, and then 10 μL of the compound at each gradient concentration was added. That is, the highest concentration was 10 μM, which was diluted stepwise by ⅓, and 8 concentration points were set in total; 0.1% DMSO (dimethyl sulfoxide) was contained in the system. The cell plate with uniformly mixed compound was cultured in a cell culture incubator (37° C.; 5% […]) for 48 h, then 20 μL of MTS reaction solution was added, uniformly mixed and incubated in the cell culture incubator (37° C.; 5% CO2) for 1-4 h; OD values at 490 nm were measured by a microplate reader (VARIOSKAN FLASH, Thermo). Two parallels were set in each group of experiments, with 0.1% (a final concentration) DMSO as a negative control, and a culture medium without cells and compounds as a blank control. The cell growth inhibition rate was calculated by the following formula: Cell growth inhibition rate %=1−(ODexperimental group−ODblank group)/(ODnegative group−ODblank group)×100%.
(§6) 4) IC50 calculation: The semi-inhibitory concentration of the compounds acting on cells was calculated using GradPad Prism 5 software according to the measured cell growth inhibition rate.

[2] = molecular target: BaF3 cell lines stably transfected with kinase EGFR L858R (Homo sapiens, UniProt P00533, L858R, cells depend on it); assay: Growth inhibition of BaF3 cell line stably transfected with kinase EGFR L858R (MTS); conditions: 48 h, read-out: growth inhibitory activity IC50, L858R
Sequence of BaF3 cell lines stably transfected with kinase EGFR L858R (P00533 whole entry L858R): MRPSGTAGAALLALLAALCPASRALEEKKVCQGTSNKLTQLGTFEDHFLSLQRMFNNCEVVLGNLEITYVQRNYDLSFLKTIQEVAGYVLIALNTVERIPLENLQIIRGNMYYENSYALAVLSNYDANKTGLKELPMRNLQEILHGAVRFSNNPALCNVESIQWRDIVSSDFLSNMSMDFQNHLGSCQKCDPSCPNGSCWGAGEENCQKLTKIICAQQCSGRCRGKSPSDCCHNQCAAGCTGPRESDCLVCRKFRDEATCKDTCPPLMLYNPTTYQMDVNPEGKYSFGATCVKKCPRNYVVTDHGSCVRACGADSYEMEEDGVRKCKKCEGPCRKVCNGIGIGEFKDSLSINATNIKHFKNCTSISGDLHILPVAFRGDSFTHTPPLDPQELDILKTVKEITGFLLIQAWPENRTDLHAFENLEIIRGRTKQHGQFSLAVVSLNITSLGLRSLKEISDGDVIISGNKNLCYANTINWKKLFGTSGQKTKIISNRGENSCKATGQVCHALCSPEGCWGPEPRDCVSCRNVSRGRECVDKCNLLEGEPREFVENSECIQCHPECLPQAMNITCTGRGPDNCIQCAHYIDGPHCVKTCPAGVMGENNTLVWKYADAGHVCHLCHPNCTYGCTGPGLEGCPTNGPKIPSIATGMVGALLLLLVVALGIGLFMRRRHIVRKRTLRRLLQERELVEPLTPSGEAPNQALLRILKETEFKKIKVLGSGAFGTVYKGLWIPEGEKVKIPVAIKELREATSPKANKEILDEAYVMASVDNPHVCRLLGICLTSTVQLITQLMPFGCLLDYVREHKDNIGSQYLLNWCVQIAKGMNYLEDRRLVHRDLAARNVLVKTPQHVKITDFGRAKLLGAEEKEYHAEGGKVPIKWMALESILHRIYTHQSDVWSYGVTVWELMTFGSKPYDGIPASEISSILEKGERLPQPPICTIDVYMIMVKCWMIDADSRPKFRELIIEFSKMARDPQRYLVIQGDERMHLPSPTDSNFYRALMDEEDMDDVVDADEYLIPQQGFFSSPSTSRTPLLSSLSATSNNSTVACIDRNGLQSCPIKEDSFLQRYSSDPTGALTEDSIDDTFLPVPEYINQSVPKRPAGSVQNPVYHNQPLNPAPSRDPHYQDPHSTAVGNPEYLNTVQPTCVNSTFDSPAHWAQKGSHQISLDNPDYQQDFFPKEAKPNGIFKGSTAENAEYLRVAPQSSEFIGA
Experimental: as §1, §2, §3, §4, §5, §6

[3] = molecular target: BaF3 cell lines stably transfected with kinase EGFR L858R/T790M/C797S (Homo sapiens, UniProt P00533, T790M/C797S/L858R, cells depend on it); assay: Growth inhibition of BaF3 cell line stably transfected with kinase EGFR L858R/T790M/C797S (MTS); conditions: 48 h, read-out: growth inhibitory activity IC50, L858R/T790M/C797S
Sequence of BaF3 cell lines stably transfected with kinase EGFR L858R/T790M/C797S (P00533 whole entry T790M/C797S/L858R): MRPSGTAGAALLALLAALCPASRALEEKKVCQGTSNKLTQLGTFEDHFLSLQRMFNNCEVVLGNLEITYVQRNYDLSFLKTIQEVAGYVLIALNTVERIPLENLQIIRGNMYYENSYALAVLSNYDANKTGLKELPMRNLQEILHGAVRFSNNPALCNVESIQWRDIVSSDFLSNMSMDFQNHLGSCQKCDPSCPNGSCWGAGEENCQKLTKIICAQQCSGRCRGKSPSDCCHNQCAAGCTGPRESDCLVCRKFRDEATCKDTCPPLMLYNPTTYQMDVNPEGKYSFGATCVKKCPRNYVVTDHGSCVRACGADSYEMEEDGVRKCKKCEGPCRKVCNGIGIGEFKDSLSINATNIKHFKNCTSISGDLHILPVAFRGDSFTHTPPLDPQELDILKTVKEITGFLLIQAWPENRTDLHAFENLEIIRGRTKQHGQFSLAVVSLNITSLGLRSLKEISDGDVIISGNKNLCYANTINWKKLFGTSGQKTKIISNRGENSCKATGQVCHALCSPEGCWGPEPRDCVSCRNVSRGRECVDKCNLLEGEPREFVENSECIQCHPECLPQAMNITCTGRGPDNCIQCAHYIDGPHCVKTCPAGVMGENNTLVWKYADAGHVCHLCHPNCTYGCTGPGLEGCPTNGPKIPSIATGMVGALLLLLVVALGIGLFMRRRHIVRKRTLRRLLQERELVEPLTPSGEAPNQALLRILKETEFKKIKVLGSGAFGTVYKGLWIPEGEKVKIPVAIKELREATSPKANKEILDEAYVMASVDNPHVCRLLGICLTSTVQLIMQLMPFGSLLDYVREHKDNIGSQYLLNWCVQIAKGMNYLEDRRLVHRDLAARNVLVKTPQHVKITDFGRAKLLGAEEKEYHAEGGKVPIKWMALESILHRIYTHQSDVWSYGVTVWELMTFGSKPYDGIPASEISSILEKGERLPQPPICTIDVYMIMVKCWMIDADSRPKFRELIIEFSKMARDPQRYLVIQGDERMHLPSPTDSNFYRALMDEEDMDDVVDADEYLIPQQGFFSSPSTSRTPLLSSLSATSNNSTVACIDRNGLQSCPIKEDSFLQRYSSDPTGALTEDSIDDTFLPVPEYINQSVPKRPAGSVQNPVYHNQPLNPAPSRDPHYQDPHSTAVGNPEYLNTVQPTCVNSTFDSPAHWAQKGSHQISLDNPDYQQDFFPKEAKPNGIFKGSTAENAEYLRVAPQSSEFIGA
Experimental: as §1, §2, §3, §4, §5, §6

[4] = molecular target: BaF3 cell lines stably transfected with kinase EGFR Del/T790M (Homo sapiens, UniProt P00533, T790M, cells depend on it, form not given); assay: Growth inhibition of BaF3 cell line stably transfected with kinase EGFR Del/T790M (MTS); conditions: 48 h, read-out: growth inhibitory activity IC50, Del/T790M
Experimental: as §1, §2, §3, §4, §5, §6

[5] = molecular target: BaF3 cell lines stably transfected with kinase EGFR Del/T790M/C797S (Homo sapiens, UniProt P00533, T790M/C797S, cells depend on it, form not given); assay: Growth inhibition of BaF3 cell line stably transfected with kinase EGFR Del/T790M/C797S (MTS); conditions: 48 h, read-out: growth inhibitory activity IC50, Del/T790M/C797S
Sequence of BaF3 cell lines stably transfected with kinase EGFR Del/T790M/C797S (P00533 with tags, fused parts or gaps DEL746-750/T790M/C797S, form open): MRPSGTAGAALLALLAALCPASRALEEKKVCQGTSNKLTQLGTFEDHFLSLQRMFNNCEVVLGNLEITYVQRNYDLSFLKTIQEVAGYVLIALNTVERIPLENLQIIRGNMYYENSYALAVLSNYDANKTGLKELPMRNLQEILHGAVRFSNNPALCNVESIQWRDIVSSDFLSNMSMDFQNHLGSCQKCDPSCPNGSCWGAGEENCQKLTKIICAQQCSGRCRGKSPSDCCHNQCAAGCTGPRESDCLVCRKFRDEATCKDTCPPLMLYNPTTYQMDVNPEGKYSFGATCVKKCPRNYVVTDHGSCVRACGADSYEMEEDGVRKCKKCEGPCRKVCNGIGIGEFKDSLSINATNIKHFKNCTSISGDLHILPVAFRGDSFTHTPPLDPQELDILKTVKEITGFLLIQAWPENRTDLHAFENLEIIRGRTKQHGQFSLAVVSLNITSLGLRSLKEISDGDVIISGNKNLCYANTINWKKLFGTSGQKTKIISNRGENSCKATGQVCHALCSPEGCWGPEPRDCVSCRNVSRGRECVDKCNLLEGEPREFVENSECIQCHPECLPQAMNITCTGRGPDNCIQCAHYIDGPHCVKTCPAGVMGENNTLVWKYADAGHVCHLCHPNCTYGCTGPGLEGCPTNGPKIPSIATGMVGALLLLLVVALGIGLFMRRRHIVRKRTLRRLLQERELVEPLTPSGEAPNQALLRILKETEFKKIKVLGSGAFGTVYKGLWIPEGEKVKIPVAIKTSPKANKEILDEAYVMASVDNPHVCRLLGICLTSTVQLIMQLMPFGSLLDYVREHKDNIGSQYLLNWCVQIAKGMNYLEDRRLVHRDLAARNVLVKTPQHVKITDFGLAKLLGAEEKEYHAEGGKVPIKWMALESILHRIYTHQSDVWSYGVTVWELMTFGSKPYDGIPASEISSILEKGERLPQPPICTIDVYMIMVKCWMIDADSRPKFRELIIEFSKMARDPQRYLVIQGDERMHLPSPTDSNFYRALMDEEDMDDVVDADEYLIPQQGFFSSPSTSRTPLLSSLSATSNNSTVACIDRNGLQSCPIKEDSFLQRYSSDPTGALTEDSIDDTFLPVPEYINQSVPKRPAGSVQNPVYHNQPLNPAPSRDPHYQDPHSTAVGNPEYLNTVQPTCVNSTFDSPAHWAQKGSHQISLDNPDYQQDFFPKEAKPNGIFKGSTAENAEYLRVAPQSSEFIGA
Experimental: as §1, §2, §3, §4, §5, §6

[6] = molecular target: BaF3 cell lines stably transfected with kinase EGFR Del (Homo sapiens, UniProt P00533, cells depend on it, form not given); assay: Growth inhibition of BaF3 cell line stably transfected with kinase EGFR Del (MTS); conditions: 48 h, read-out: growth inhibitory activity IC50, Del
Sequence of BaF3 cell lines stably transfected with kinase EGFR Del (P00533 with tags, fused parts or gaps DEL746-750): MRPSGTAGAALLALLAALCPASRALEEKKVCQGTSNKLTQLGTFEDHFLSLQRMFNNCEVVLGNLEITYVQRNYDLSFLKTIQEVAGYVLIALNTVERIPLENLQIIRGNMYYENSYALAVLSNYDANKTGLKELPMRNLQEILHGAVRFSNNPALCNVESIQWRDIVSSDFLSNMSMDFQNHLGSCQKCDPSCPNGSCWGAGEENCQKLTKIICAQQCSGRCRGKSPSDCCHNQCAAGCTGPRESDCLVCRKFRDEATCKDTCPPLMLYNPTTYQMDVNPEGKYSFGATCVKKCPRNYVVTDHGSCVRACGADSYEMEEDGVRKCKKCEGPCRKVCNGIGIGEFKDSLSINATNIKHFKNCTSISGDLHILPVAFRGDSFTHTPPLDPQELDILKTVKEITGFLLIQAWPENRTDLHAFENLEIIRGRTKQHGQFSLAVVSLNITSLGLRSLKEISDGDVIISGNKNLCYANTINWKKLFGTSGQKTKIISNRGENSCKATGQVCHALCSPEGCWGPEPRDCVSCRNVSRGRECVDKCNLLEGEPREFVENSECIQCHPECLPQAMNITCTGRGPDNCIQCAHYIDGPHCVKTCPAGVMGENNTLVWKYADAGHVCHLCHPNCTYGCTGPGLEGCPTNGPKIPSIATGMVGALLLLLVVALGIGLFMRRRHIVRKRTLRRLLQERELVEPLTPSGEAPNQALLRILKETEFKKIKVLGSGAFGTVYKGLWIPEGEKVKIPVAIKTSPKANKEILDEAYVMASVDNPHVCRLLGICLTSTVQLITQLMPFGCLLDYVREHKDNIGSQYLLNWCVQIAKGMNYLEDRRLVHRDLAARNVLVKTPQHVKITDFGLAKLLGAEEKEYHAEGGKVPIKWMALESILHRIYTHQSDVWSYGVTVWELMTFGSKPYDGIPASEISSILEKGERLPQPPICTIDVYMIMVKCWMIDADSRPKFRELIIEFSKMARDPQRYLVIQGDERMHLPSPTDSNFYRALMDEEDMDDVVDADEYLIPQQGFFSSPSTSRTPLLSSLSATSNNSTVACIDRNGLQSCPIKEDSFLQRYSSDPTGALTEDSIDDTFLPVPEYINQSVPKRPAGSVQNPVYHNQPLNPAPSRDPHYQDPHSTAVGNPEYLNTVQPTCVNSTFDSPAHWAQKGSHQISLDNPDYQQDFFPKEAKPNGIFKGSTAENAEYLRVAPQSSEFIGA
Experimental: as §1, §2, §3, §4, §5, §6

Row | GI50 [1] | GI50 [2] | GI50 [3] | GI50 [4] | GI50 [5] | GI50 [6] | SMILES
1 | ≤ 50 nM | ≤ 50 nM | ≤ 50 nM | ≤ 50 nM | ≤ 50 nM | ≤ 50 nM | C=Cc1cnc(Nc2ccc(N3CCC(N4CCN(C)CC4)CC3)c(CC)c2)nc1Nc1ccc2nccnc2c1N(C)S(C)(=O)=O [II-20]
2 | ≤ 50 nM | ≤ 50 nM | ≤ 50 nM | ≤ 50 nM | ≤ 50 nM | ≤ 50 nM | C=Cc1cnc(Nc2cc(C)c(N3CCC(N4CCN(C)CC4)CC3)cc2OC)nc1Nc1ccc2nccnc2c1P(C)(C)=O [Compound I-9]
3 | 50 to 500 nM | 500 to 2500 nM | 500 to 2500 nM | 500 to 2500 nM | 500 to 2500 nM | 500 to 2500 nM | C=Cc1cnc(Nc2cc(C)c(N3CCC(N4CCN(C)CC4)CC3)cc2OC)nc1Nc1ccc2nccnc2c1S(C)(=O)=O [III-9]
4 | 50 to 500 nM | 50 to 500 nM | 500 to 2500 nM | 50 to 500 nM | 500 to 2500 nM | 50 to 500 nM | C=Cc1cnc(Nc2cc(CC)c(N3CCC(N4CCN(C)CC4)CC3)cc2OC)nc1Nc1ccc2nccnc2c1S(=O)(=O)NC(C)C [IV-18]
5 | 50 to 500 nM | 50 to 500 nM | 50 to 500 nM | 50 to 500 nM | 50 to 500 nM | 50 to 500 nM | C=Cc1cnc(Nc2cc(C3CC3)c(N3CCC(N4CCN(C)CC4)CC3)cc2OC)nc1Nc1ccc2nccnc2c1P(C)(C)=O [Compound I-17]
6 | 50 to 500 nM | 50 to 500 nM | ≤ 50 nM | ≤ 50 nM | 50 to 500 nM | 50 to 500 nM | C=Cc1cnc(Nc2cc(CC)c(N3CCC(N4CCN(C)CC4)CC3)cc2OC)nc1Nc1ccc2nccnc2c1N(C)S(=O)(=O)CC [II-9]
7 | 50 to 500 nM | 500 to 2500 nM | 500 to 2500 nM | 50 to 500 nM | 500 to 2500 nM | 50 to 500 nM | C=Cc1cnc(Nc2cc(CC)c(N3CCC(N4CCN(C)CC4)CC3)cc2OC)nc1Nc1ccc2nccnc2c1S(C)(=O)=O [III-1]
8 | ≤ 50 nM | ≤ 50 nM | ≤ 50 nM | ≤ 50 nM | ≤ 50 nM | ≤ 50 nM | C=Cc1cnc(Nc2cc(CC)c(N3CCC(N(C)C)C3)cc2OC)nc1Nc1ccc2nccnc2c1N(C)S(C)(=O)=O (stereo not drawn) [II-3]
9 | ≤ 50 nM | ≤ 50 nM | ≤ 50 nM | ≤ 50 nM | ≤ 50 nM | ≤ 50 nM | C=Cc1cnc(Nc2cc(CC)c(N3CCC(N(C)C)CC3)cc2OC)nc1Nc1ccc2nccnc2c1N(C)S(C)(=O)=O [II-2]
10 | ≤ 50 nM | 50 to 500 nM | 50 to 500 nM | 50 to 500 nM | 500 to 2500 nM | 50 to 500 nM | C=Cc1cnc(Nc2cccc(C3CCN(C)CC3)c2)nc1Nc1ccc2nccnc2c1P(C)(C)=O [Compound I-22]
11 | 50 to 500 nM | ≤ 50 nM | ≤ 50 nM | ≤ 50 nM | 50 to 500 nM | ≤ 50 nM | C=Cc1cnc(Nc2cc(C3CC3)c(N3CCC(N4CCN(C)CC4)CC3)cc2OC)nc1Nc1ccc2nccnc2c1NS(C)(=O)=O [II-36]
12 | 500 to 2500 nM | 50 to 500 nM | 500 to 2500 nM | 500 to 2500 nM | 500 to 2500 nM | ≤ 50 nM | CCc1cc(Nc2ncc(C3=CCCC3)c(Nc3ccc4nccnc4c3N(C)S(C)(=O)=O)n2)c(OC)cc1N1CCC(N2CCN(C)CC2)CC1 [II-27]
13 | 50 to 500 nM | 50 to 500 nM | 50 to 500 nM | 500 to 2500 nM | 500 to 2500 nM | 50 to 500 nM | C=C(C)c1cnc(Nc2cc[nH]n2)nc1Nc1ccc2nccnc2c1N(C)S(C)(=O)=O [II-69]
14 | ≤ 50 nM | 50 to 500 nM | 50 to 500 nM | 50 to 500 nM | 50 to 500 nM | 50 to 500 nM | C=Cc1cnc(Nc2ccc(N3CCC(N4CCN(C)CC4)CC3)c(CC)c2)nc1Nc1ccc2nccnc2c1S(=O)(=O)NC [IV-9]
15 | 50 to 500 nM | ≤ 50 nM | ≤ 50 nM | ≤ 50 nM | ≤ 50 nM | 50 to 500 nM | C=Cc1cnc(Nc2cc(CC)c(N3CCC(C(C)C)C3)cc2OC)nc1Nc1ccc2nccnc2c1P(C)(C)=O (stereo not drawn) [Compound I-3]
16 | 50 to 500 nM | ≤ 50 nM | ≤ 50 nM | ≤ 50 nM | ≤ 50 nM | ≤ 50 nM | C=Cc1cnc(Nc2cc(CC)c(N3CCC(N(C)C)C3)cc2OC)nc1Nc1ccc2nccnc2c1NS(C)(=O)=O (stereo not drawn) [II-40]
17 | ≤ 50 nM | 50 to 500 nM | 50 to 500 nM | ≤ 50 nM | ≤ 50 nM | 50 to 500 nM | C=C(C)c1cnc(Nc2cnn(C)c2)nc1Nc1ccc2nccnc2c1N(C)S(C)(=O)=O [II-71]
18 | 50 to 500 nM | 500 to 2500 nM | 500 to 2500 nM | 500 to 2500 nM | 500 to 2500 nM | 500 to 2500 nM | C=Cc1cnc(Nc2cc(CC)c(N3CCC(N4CCN(C)CC4)CC3)nc2OC)nc1Nc1ccc2nccnc2c1S(C)(=O)=O [III-10]
19 | 500 to 2500 nM | 500 to 2500 nM | 500 to 2500 nM | 500 to 2500 nM | 50 to 500 nM | 500 to 2500 nM | C=Cc1cnc(Nc2cnn(CC)c2)nc1Nc1ccc2nccnc2c1N(C)S(C)(=O)=O [II-66]
20 | 50 to 500 nM | 50 to 500 nM | 50 to 500 nM | ≤ 50 nM | ≤ 50 nM | 50 to 500 nM | C=Cc1cnc(Nc2cc(CC)c(N3CCC(N4CCN(C)CC4)CC3)cc2OC(F)(F)F)nc1Nc1ccc2nccnc2c1N(C)S(C)(=O)=O [II-6]
21 | ≤ 50 nM | ≤ 50 nM | ≤ 50 nM | ≤ 50 nM | 50 to 500 nM | ≤ 50 nM | C=Cc1cnc(Nc2cc(CC)c(N3CCC(N4CCN(C)CC4)CC3)cc2OC)nc1Nc1ccc2nccnc2c1N(C1CC1)S(C)(=O)=O [II-14]
22 | 50 to 500 nM | 50 to 500 nM | 50 to 500 nM | ≤ 50 nM | 50 to 500 nM | 50 to 500 nM | C=Cc1cnc(Nc2cc(C3CC3)c(N3CCC(N4CCN(C)CC4)CC3)cc2OC)nc1Nc1ccc2nccnc2c1N(C)S(C)(=O)=O [II-18]
23 | 50 to 500 nM | 500 to 2500 nM | 50 to 500 nM | 50 to 500 nM | 50 to 500 nM | 50 to 500 nM | C=Cc1cnc(Nc2cc(CC3CC3)c(N3CCC(N4CCN(C)CC4)CC3)cc2OC)nc1Nc1ccc2nccnc2c1S(=O)(=O)NC [IV-8]
24 | 50 to 500 nM | 50 to 500 nM | 500 to 2500 nM | 500 to 2500 nM | 500 to 2500 nM | 500 to 2500 nM | C=Cc1cnc(Nc2cc(C(C)C)c(N3CCC(N4CCN(C)CC4)CC3)cc2OC)nc1Nc1ccc2nccnc2c1S(=O)(=O)C(C)C [III-20]
25 | ≤ 50 nM | ≤ 50 nM | ≤ 50 nM | ≤ 50 nM | ≤ 50 nM | ≤ 50 nM | C=Cc1cnc(Nc2cc(CC)c(N3CCC(N4CCN(C)CC4)CC3)cc2OC)nc1Nc1ccc2nccnc2c1N(CC)S(C)(=O)=O [II-12]
26 | ≤ 50 nM | ≤ 50 nM | ≤ 50 nM | ≤ 50 nM | ≤ 50 nM | ≤ 50 nM | C=C(C)c1cnc(Nc2cc(CC)c(N3CCC(N4CCN(C)CC4)CC3)cc2OC)nc1Nc1ccc2nccnc2c1N(C)S(C)(=O)=O [II-21]
27 | 500 to 2500 nM | 500 to 2500 nM | 50 to 500 nM | 500 to 2500 nM | 500 to 2500 nM | 500 to 2500 nM | C=Cc1cnc(Nc2cc3c(cc2OC)CCN(C)C3)nc1Nc1ccc2nccnc2c1N(C)S(C)(=O)=O [II-73]
28 | 50 to 500 nM | 500 to 2500 nM | 50 to 500 nM | 50 to 500 nM | 50 to 500 nM | 50 to 500 nM | C=Cc1cnc(Nc2cc(CC)c(N(C)CCN(C)C)cc2OC)nc1Nc1ccc2nccnc2c1N(C)S(C)(=O)=O [II-51]
